Molecular target: T1, DmX receptor (DmXR) (Drosophila melanogaster, UniProt Q70GQ8)
T1 construct: gene mtt; HA-DmXR WT, transiently expressed in HEK 293 cells
T1 sequence (Q70GQ8 1-1073): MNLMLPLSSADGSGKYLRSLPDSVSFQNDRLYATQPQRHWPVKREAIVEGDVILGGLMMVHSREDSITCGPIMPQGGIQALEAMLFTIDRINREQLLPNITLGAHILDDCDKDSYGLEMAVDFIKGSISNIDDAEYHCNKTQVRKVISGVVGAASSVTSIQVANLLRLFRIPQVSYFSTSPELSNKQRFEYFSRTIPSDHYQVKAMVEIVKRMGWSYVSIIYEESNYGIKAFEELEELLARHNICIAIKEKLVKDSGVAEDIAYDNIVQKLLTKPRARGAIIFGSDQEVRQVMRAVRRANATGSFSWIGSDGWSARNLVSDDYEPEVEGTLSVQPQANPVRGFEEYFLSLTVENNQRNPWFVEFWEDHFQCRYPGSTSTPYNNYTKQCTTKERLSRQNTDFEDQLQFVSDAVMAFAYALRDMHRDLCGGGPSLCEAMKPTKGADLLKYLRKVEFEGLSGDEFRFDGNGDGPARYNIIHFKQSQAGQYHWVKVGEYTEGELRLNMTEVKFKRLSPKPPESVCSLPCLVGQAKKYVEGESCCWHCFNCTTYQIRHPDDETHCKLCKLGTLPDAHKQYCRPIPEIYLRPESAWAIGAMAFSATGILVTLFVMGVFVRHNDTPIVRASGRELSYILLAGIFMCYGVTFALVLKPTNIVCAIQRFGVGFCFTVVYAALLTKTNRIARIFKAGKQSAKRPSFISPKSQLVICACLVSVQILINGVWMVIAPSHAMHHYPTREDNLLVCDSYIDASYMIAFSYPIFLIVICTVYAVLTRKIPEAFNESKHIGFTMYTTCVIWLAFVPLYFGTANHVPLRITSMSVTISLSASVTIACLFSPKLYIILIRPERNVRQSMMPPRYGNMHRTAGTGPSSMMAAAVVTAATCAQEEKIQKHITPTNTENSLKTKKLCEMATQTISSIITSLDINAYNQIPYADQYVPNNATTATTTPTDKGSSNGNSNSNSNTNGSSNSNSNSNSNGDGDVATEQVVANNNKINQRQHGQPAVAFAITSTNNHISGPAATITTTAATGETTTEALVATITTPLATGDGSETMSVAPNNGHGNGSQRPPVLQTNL
Assay: IP accumulation in HEK cells coexpressing DmXR and Gqi9; inhibition of activation by […] L-canavanine (antagonist)
Format: cell-based

CN=C(N)NCCC[C@H](N)C(=O)O [NMA, N-methyl-L-arginine]
IC50: 200 ± 200 µM

Reference: publication PMC2695807, “Plant Insecticide L-Canavanine Repels Drosophila via the Insect Orphan GPCR DmX” (PLoS Biology, 2009)
